Assay results taken from ChEMBL document CHEMBL5543147, “Discovery and Characterization of a Novel Cereblon-Recruiting PRC1 Bridged PROTAC Degrader” (J Med Chem, 2024).
Active and inactive are the calls of the source. No cut-off for these calls is given here.

Legend:
[1] = molecular target: T1, Protein cereblon/E3 ubiquitin-protein ligase RING2 (Homo sapiens, UniProt Q96SW2+Q99496); assay: PROTAC activity at CRBN/RING1B in human K562 cells assessed as degradation of RING1B protein expression at 10 uM incubated for 20 hrs in presence of EED226 by Western blotting analysis; assay type: cell-based
T1 sequence (Q96SW2 whole entry): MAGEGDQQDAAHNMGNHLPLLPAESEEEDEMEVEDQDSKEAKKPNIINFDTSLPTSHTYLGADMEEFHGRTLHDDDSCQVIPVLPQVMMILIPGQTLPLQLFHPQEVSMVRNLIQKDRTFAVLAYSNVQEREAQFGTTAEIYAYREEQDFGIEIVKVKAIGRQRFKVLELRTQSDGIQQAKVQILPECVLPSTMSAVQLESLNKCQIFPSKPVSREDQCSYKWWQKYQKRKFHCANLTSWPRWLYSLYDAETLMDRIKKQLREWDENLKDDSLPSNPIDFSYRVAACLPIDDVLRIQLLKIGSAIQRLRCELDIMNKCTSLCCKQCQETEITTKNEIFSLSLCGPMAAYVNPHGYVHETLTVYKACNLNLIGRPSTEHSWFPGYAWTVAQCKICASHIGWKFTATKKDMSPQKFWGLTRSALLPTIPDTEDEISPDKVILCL
T1 sequence (Q99496 2-336 partner limits assumed): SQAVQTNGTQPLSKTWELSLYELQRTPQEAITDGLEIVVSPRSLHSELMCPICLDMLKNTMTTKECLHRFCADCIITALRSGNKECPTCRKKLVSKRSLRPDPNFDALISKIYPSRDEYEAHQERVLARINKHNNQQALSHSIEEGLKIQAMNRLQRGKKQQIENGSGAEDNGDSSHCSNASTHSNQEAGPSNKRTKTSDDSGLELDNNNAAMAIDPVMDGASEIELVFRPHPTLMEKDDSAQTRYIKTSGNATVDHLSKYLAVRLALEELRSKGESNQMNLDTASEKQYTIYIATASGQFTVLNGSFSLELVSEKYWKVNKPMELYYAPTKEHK

[2] = tested on: PC-3M; assay: Inhibition of colony formation in human PC-3M cells at 1 to 10 uM incubated for 14 days by crystal violet staining based assay; assay type: functional, cell-based; conditions: dose 1-10 µM, time 14.0 day
[3] = tested on: K562; assay: Antiproliferative activity against human K562 cells assessed as cell growth inhibition incubated for 7 days by WST-8 assay; assay type: functional; conditions: K562, 168 h, time 7 day
[4] = tested on: PC-3M; assay: Induction of PRC1 degradation in human PC-3M cells assessed as reduction of H2AK119ub chromatin mark at 1 uM incubated for 24 hrs by Western blotting analysis; assay type: cell-based
[5] = molecular target: T2, Protein cereblon/Polycomb protein EED (Homo sapiens, UniProt O75530+Q96SW2); assay: PROTAC activity at CRBN/EED in human K562 cells assessed as degradation of EED mRNA expression at 10 uM incubated for 20 hrs by RT-qPCR analysis; assay type: cell-based
T2 sequence (O75530 2-441 limits assumed): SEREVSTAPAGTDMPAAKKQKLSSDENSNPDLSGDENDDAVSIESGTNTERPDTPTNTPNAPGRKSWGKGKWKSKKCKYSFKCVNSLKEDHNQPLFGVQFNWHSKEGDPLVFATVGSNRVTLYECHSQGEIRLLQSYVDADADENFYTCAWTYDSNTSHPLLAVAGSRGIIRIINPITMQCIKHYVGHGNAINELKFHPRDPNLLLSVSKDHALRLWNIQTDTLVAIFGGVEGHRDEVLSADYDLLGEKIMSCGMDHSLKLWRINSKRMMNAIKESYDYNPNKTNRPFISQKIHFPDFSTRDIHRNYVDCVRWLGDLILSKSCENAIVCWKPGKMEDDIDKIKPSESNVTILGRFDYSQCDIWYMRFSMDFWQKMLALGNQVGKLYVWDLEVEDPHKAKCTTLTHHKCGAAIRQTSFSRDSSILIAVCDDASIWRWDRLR
T2 sequence (Q96SW2 whole entry partner): as the sequence (Q96SW2 whole entry) above

[6] = tested on: K562; assay: Induction of PRC2 degradation in human K562 cells assessed as reduction of H3K27me3 chromatin mark at 0.1 to 10 uM incubated for 24 hrs by Western blotting analysis; assay type: cell-based; conditions: dose 0.1-10 µM
[7] = tested on: MDA-MB-468; assay: Antiproliferative activity against human MDA-MB-468 cells assessed as inhibition of cell growth at 1 to 10 uM incubated for 5 days by WST-8 assay; assay type: functional, cell-based; conditions: dose 1-10 µM, time 5.0 day
[8] = Drug concentration in Swiss albino mouse plasma at 50 mg/kg,ip administration measured after 2 hrs by LC-MS/MS analysis; assay type: ADME, organism-based
[9] = tested on: 786-0; assay: Antiproliferative activity against human 786-0 cells assessed as inhibition of cell growth at 30 uM incubated for 7 days by WST-8 assay; assay type: functional, cell-based; conditions: time 7.0 day
[10] = tested on: K562; assay: Induction of PRC1 degradation in human K562 cells assessed as reduction of H2AK119ub chromatin mark at 0.1 to 10 uM incubated for 24 hrs by Western blotting analysis; assay type: cell-based; conditions: dose 0.1-10 µM
[11] = molecular target: T2, Protein cereblon/Polycomb protein EED; assay: PROTAC activity at CRBN/EED in human K562 cells assessed as degradation of EED protein expression at 10 uM measured after 12 hrs by Western blotting analysis relative to control; assay type: cell-based
[12] = molecular target: Protein cereblon/YY1-associated factor 2 (Homo sapiens) (UniProt Q96SW2+Q8IY57); assay: PROTAC activity at CRBN/YAF in human K562 cells assessed as degradation of YAF protein expression at 1 to 10 uM incubated for 24 hrs by Western blotting analysis; assay type: cell-based; conditions: dose 1-10 µM
Sequence of Protein cereblon/YY1-associated factor 2 (Homo sapiens) (Q8IY57 whole entry, looked up): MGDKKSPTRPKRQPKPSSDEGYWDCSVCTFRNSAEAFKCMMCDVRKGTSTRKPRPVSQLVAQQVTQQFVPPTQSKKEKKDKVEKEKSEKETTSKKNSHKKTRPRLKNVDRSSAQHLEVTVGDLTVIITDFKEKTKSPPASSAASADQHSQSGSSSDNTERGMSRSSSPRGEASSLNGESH
Sequence of Protein cereblon/YY1-associated factor 2 (Homo sapiens) (Q96SW2 whole entry, looked up): as the sequence (Q96SW2 whole entry) above

[13] = molecular target: T3, Protein cereblon/Polycomb complex protein BMI-1 (Homo sapiens, UniProt Q96SW2+P35226); assay: PROTAC activity at […] in human K562 cells assessed as degradation of BMI1 protein expression at 10 uM measured after 12 hrs by Western blotting analysis relative to control; assay type: cell-based
Target sequence in this assay (P35226 whole entry, looked up): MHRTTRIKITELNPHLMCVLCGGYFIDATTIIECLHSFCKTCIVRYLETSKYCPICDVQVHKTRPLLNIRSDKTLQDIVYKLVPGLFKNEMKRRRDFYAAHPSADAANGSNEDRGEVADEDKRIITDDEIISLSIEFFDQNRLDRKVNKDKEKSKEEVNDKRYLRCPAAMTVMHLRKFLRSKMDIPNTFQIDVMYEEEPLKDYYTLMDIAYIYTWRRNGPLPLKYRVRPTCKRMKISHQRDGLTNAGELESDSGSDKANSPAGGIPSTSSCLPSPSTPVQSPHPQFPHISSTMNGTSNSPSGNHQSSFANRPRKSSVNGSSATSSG
Target sequence in this assay (Q96SW2 whole entry, looked up): as the sequence (Q96SW2 whole entry) above

[14] = tested on: 786-0; assay: Induction of PRC2 degradation in human 786-0 cells with defective VHL assessed as reduction of H3K27me3 chromatin mark at 10 uM incubated for 24 hrs by Western blotting analysis; assay type: cell-based
[15] = tested on: PC-3M; assay: Induction of PRC1 degradation in human PC-3M cells assessed as reduction of H2AK119ub chromatin mark at 5 uM incubated for 24 hrs by Western blotting analysis; assay type: cell-based
[16] = tested on: PC-3M; assay: Induction of PRC2 degradation in human PC-3M cells assessed as reduction of H3K27me3 chromatin mark at 5 uM incubated for 24 hrs by Western blotting analysis; assay type: cell-based
[17] = tested on: PNT2; assay: Cytotoxicity against human PNT2 cells assessed as inhibition of cell growth measured upto 15 uM incubated for 5 days by WST-8 assay; assay type: toxicity, cell-based; conditions: pnt2, 120 h, time 5 day
[18] = molecular target: Cereblon/Ikaros (Homo sapiens) (UniProt Q96SW2+Q13422); assay: PROTAC activity at CRBN/IKZF1 in human K562 cells assessed as degradation of IKZF1 protein at 0.1 to 10 uM incubated for 4 hrs by Western blotting analysis; assay type: cell-based; conditions: dose 0.1-10 µM
[19] = tested on: MDA-MB-468; assay: Induction of PRC1 degradation in human MDA-MB-468 cells assessed as reduction of H2AK119ub chromatin mark at 5 uM incubated for 24 hrs by Western blotting analysis; assay type: cell-based
[20] = molecular target: T3, Protein cereblon/Polycomb complex protein BMI-1; assay: PROTAC activity at CRBN/BIM1 in human K562 cells assessed as degradation of BMI1 protein expression incubated for 24 hrs by Western blotting analysis; assay type: cell-based
Target sequence in this assay (Q96SW2 whole entry): as above
Target sequence in this assay (P35226 whole entry): as the sequence (P35226 whole entry, looked up) above

[21] = molecular target: T3, Protein cereblon/Polycomb complex protein BMI-1; assay: PROTAC activity at […] in human K562 cells assessed as degradation of BMI1 mRNA expression at 10 uM incubated for 20 hrs by RT-qPCR analysis; assay type: cell-based
Target sequence in this assay (P35226 whole entry, looked up): as above
Target sequence in this assay (Q96SW2 whole entry, looked up): as the sequence (Q96SW2 whole entry) above

[22] = molecular target: T4, Protein cereblon/Polycomb protein SUZ12 (Homo sapiens) (UniProt Q15022+Q96SW2); assay: PROTAC activity at CRBN/SUZ12 in human K562 cells assessed as degradation of SUZ12 protein expression at 0.1 to 10 uM incubated for 24 hrs by Western blotting analysis; assay type: cell-based; conditions: dose 0.1-10 µM
T4 sequence (Q15022 whole entry, looked up): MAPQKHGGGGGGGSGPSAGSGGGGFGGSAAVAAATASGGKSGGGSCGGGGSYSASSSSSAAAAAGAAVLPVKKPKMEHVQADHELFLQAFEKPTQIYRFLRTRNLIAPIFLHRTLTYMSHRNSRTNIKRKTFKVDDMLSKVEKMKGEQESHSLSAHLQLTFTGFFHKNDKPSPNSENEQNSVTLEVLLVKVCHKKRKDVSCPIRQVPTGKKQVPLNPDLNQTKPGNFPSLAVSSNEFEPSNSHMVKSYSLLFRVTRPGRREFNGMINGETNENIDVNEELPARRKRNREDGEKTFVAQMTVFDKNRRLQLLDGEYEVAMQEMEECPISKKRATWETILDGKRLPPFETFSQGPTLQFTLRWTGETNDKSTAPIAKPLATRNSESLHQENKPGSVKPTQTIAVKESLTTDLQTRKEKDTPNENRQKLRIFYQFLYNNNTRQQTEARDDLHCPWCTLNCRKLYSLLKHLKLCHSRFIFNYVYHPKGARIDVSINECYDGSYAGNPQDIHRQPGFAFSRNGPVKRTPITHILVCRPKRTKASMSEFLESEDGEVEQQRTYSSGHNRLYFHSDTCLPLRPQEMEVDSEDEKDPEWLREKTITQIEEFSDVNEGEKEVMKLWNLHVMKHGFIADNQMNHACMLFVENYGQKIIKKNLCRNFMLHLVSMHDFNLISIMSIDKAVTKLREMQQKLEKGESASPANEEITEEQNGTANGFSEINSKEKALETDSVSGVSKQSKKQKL
T4 sequence (Q96SW2 whole entry, looked up): as the sequence (Q96SW2 whole entry) above

[23] = molecular target: T3, Protein cereblon/Polycomb complex protein BMI-1; assay: PROTAC activity at CRBN/BIM1 in human MDA-MB-468 cells assessed as degradation of BMI1 protein expression at 5 uM incubated for 24 hrs by Western blotting analysis; assay type: cell-based
Target sequence in this assay (P35226 whole entry, looked up): as the sequence (P35226 whole entry, looked up) above
Target sequence in this assay (Q96SW2 whole entry, looked up): as the sequence (Q96SW2 whole entry) above

[24] = molecular target: T1, Protein cereblon/E3 ubiquitin-protein ligase RING2; assay: PROTAC activity at CRBN/RING1B in human MDA-MB-468 cells assessed as degradation of RING1B protein expression at 5 uM incubated for 24 hrs by Western blotting analysis; assay type: cell-based
[25] = molecular target: T4, Protein cereblon/Polycomb protein SUZ12 (Homo sapiens); assay: PROTAC activity at CRBN/SUZ12 in human PC-3M cells assessed as degradation of SUZ12 protein expression at 0.2 to 5 uM incubated for 24 hrs by Western blotting analysis; assay type: cell-based; conditions: dose 0.2-5 µM
[26] = molecular target: T1, Protein cereblon/E3 ubiquitin-protein ligase RING2; assay: PROTAC activity at CRBN/RING1B in human PC-3M cells assessed as degradation of RING1B protein expression at 1 uM incubated for 24 hrs by Western blotting analysis; assay type: cell-based
[27] = molecular target: Protein cereblon/RING1 and YY1-binding protein (Homo sapiens) (UniProt Q96SW2+Q8N488); assay: PROTAC activity at CRBN/RYBP in human K562 cells assessed as degradation of RYBP protein expression at 1 to 10 uM incubated for 24 hrs by Western blotting analysis; assay type: cell-based; conditions: dose 1-10 µM
Sequence of Protein cereblon/RING1 and YY1-binding protein (Homo sapiens) (Q8N488 whole entry, looked up): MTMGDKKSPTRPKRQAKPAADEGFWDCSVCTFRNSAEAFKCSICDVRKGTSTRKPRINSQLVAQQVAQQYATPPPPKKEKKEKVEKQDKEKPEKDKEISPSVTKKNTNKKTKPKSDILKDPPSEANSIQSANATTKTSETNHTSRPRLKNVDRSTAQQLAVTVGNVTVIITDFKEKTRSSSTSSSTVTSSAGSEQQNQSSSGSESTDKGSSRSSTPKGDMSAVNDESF
Sequence of Protein cereblon/RING1 and YY1-binding protein (Homo sapiens) (Q96SW2 whole entry, looked up): as the sequence (Q96SW2 whole entry) above

[28] = molecular target: T3, Protein cereblon/Polycomb complex protein BMI-1; assay: PROTAC activity at […] in human K562 cells assessed as degradation of BMI1 protein expression at 10 uM incubated for 20 hrs in presence of pomalidomide by Western blotting analysis; assay type: cell-based
Target sequence in this assay (P35226 whole entry, looked up): as the sequence (P35226 whole entry, looked up) above
Target sequence in this assay (Q96SW2 whole entry, looked up): as the sequence (Q96SW2 whole entry) above

[29] = molecular target: Polycomb protein EED (Homo sapiens, UniProt O75530); assay: Binding affinity to EED (75 to 441 residues) (unknown origin) expressed in Escherichia coli BL21 (DE3) assessed as dissociation constant by isothermal titration calorimetry
Sequence of Polycomb protein EED (O75530 whole entry, the tested form may be a part): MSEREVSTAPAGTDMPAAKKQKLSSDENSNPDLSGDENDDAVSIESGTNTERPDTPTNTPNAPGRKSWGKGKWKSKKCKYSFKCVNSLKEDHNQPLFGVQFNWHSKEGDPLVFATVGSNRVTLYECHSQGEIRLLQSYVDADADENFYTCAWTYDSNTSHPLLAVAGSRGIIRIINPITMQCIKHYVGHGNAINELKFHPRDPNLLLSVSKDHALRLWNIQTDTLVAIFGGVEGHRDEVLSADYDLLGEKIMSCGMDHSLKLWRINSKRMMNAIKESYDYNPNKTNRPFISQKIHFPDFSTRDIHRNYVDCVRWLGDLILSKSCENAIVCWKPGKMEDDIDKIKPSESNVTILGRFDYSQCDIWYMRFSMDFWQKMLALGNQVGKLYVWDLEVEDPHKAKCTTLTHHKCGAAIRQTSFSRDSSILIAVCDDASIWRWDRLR

[30] = molecular target: T3, Protein cereblon/Polycomb complex protein BMI-1; assay: PROTAC activity at […] in human K562 cells assessed as degradation of BMI1 protein expression at 10 uM incubated for 20 hrs in presence of MLN4924 by Western blotting analysis; assay type: cell-based
Target sequence in this assay (P35226 whole entry, looked up): as the sequence (P35226 whole entry, looked up) above
Target sequence in this assay (Q96SW2 whole entry, looked up): as the sequence (Q96SW2 whole entry) above

For `O=C(CNc1cccc2c1C(=O)N(C1CCC(=O)NC1=O)C2=O)NCCCCN1CCN(c2ccc(-c3cnc(NCc4ccco4)n4cnnc34)cc2)CC1` (stereo not given), the Activity [1] was “inactive”, the inhibition [2] was “Active” and the GI50 [3] was 3.7 µM. The Activity [4] was “Active”, the Activity [5] was “inactive” and the Activity [6] was “Active”. The Activity [7] was “Active”, the concentration at 2 h [8] was greater than 1000 nM and the Activity [9] was “Active”. The Activity [10] was “Active”, the Activity [11] was 50% and the Activity [12] was “inactive”. For the same compound, the Activity [13] was 100%, the Activity [14] was “inactive” and the Activity [15] was “Active”. The Activity [16] was “inactive”, the Activity [17] was “Non-Toxic” and the Activity [18] was “inactive”. The Activity [19] was “Active”, the DC50 [20] was 1.7 µM and the Activity [21] was “inactive”. For the same compound, the Activity [22] was “Active”, the Activity [23] was “Active” and the Activity [24] was “Active”. The Activity [25] was “inactive”, the Activity [26] was “Active” and the Activity [27] was “inactive”. For the same compound, the Activity [28] was “inactive”, the Kd [29] was 0.19 µM and the Activity [30] was “inactive”.
